What was measured:
Coho barley seedlings = experiment: Barley seedlings, triacontanol solutions applied to soil (Example XV); type: in vivo
Description: To study the growth of 25-day-old "Coho" barley seedlings treated with triacontanol solutions applied to the soil in the greenhouse. Treatments were started when seedlings were 13 days old.

oat first-internode = conditions: published reports; cited from earlier work
[1] = tested on: Barley callus cell culture; experiment: Growth of barley callus cell culture (Example XIX); type: cell-based, interspecific cross of Hordeum vulgare and Hordeum jubatum
Description: (§1) Cell cultures were separately grown in disposable petri dishes.
5. Barley (interspecific cross of Hordeum vulgare and Hordeum jubatum)
(§2) The cultures were grown on the basic medium of mineral salts described by Linsmaier and Skoog (Physiol. Plant, […] (1965)). Vitamins and hormones varied for each tissue (Table X-1) to maintain the tissues in an undifferentiated state. For all of the tissues inositol was 100 mg/liter and agar 1%. Sucrose was 3% for all but the bean which was 2%.
(§3) Callus was produced from pith for tobacco, potato and tomato. Bean callus was produced from hypocotyl sections and barley callus from immature ovarian tissue. Subcultures were maintained on the appropriate media.
(§4) Stock solutions of triacontanol were prepared at a concentration of 100 μg/ml. The solvent used was glass distilled benzene. The lower concentrations were obtained by serial dilutions. Treatments were applied to 4.5 cm Whatman #1 filter paper disks in 100 μl aliquots. Controls received 100 μl of glass distilled benzene. The solvent was evaporated for approximately 15 minutes and the filter papers were then placed on the agar medium.
(§5) Callus tissue was then broken into pieces of approximately the same size (10 mg) and placed in the petri dishes on the treated filter paper (one piece per dish). For experiments conducted in the light the intensity was approximately 2.0 microwatts/cm^2 -namometer. Fresh weight measurements were made after 12 days of growth.

Bean callus cell culture = experiment: Growth of bean callus cell culture (Example XIX); type: cell-based, Phaseolus vulgaris, var. seafarer
Description: as §1
4. Bean (Phaseolus vulgaris, var. seafarer)
as §2, §3, §4, §5

[2] = tested on: Potato callus cell culture; experiment: Growth of potato callus cell culture (Example XIX); type: cell-based, Solanum tuberosum, var. adveria
Description: as §1
3. Potato (Solanum tuberosum, var. adveria)
as §2, §3, §4, §5

Larker barley = experiment: Single and multiple foliar applications on barley (Example XII); type: in vivo
Description: Tests were run, under the conditions above described, to determine the response of "Michigan 396" field corn and "Larker" barley to single and multiple foliar applications of triacontanol at […]. Plants were one week old at time of first treatment and 25 days old at time or harvest. Table XII states the test results.

field corn = experiment: Foliar spray and soil drench on field corn (Example IX); type: in vivo; conditions: for % increase: dry weight
Description: To determine the effect of triacontanol methods of treatment, differing amounts of triacontanol were applied to field corn by foliar spray and by drenching the soil. The plants were twelve days old at the time of treatment, and the plants were harvested when forty-two days old.
0.01 mg/l triacontanol applied by soil drench corresponds to 0.4 grams pe
acre. 0.10 mg/l corresponds to 4 grams per acre.

IR-8 rice seedlings = experiment: Percent change in dry weight of rice seedlings in the dark (Example XVIII); type: in vivo; conditions: 0.01 mg/l
Description: Rice seed cv. IR-8, or Starbonnet was surface treated with 0.1 percent mercuric chloride and planted in 77 cc plastic cups containing vermiculite and watered with one-fourth Hoagland's nutrient solution containing 3 mM of nitrogen at pH 5.0. After 10 days, seedlings were transplanted to 220 cc specimen cups wrapped in aluminum foil and containing 180 cc of the same Hoagland's nutrient solution. Four seedlings were suspended in the solution with a sponge rubber disc. The plants were grown under a 8 h night at 25° C. and a 16 h day at 30° C. with 21 and 8 μwatts per cm^2 in the blue and red spectra respectively. In the test with varying light intensity the high light intensity was 30 13 and the low intensity was 15 and 8 μwatts per cm^2 for the blue and red spectra respectively. The nutrient solution was renewed every 2 or 3 days. After one week the plants were sorted for size and similar sized plants assigned to the same block for the experiment. Prior to the initiation of a test the plants in each cup were assigned treatment numbers by use of a random number table. […] Sixteen hours prior to a test the foil wrapped cups were tared, and filled with one-half Hoaglands solution containing 6 mM nitrogen. Eighteen μl of chloroform or chloroform containing 1.8 μg triacontanol were placed on 2 cm^2 of Whatman No. 1 filter papers, air dried and placed in the specimen cups. This concentration of 10 μg triacontanol/liter was used for all tests described in the following Examples except where specifically indicated to the contrary. Immediately prior to the test the cups were all brought up to 180 ml. including a set of cups without plants to measure evaporation.
This example was run to determine the percent change in dry weight of whole 15-day-old "IR-8" rice seedlings treated with triacontanol in the dark as compared with a control. The dry weight at zero time was 37.3 mg per seedling. […]

tobacco callus = experiment: Growth of tobacco callus, triacontanol and octocosanol (Example XIX, FIG. 6); type: cell-based, Nicotiana tabacum, var. Wisconsin 38; conditions: 10 days; for growth over the control: four concentrations
Description: as §1
1. Haploid tobacco (Nicotiana tabacum, var. Wisconsin 38)
as §2, §3, §4, §5
A stock solution of octocosanol (CH3 (CH2)26 CH2 OH was prepared in the same manner as the triacontanol solutions above described.
The effect of four concentrations of triacontanol and octocosanol on tobacco callus was determined, using the materials and procedures above described in this Example. The dishes were tared and weighed at the end of 10 days. The results are illustrated in FIG. 6 of the drawings.

[3] = printed 10.0 g triacontanol, 12 days
[4] = foliar spray, 0.01 mg/l (first line)
[5] = foliar spray, printed 0.01 mg/l (second line)

CCCCCCCCCCCCCCCCCCCCCCCCCCCCCCO [Triacontanol, 1-triacontanol]
Seedling wt (Coho barley seedlings; nutrients 0, triacontanol 0.01 mg/L): 275 mg/shoot
Seedling wt (Coho barley seedlings; nutrients 0, triacontanol 0.10 mg/L): 270 mg/shoot
Seedling wt (Coho barley seedlings; nutrients 100 mg 20-20-20/L, triacontanol 0.01 mg/L): 310 mg/shoot
Seedling wt (Coho barley seedlings; nutrients 100 mg 20-20-20/L, triacontanol 0.10 mg/L): 316 mg/shoot
Seedling wt (Coho barley seedlings; nutrients 1000 mg 20-20-20/L, triacontanol 0.01 mg/L): 438 mg/shoot
Seedling wt (Coho barley seedlings; nutrients 1000 mg 20-20-20/L, triacontanol 0.10 mg/L): 442 mg/shoot
growth, oat first-internode method (oat first-internode): not active
growth of in vitro cell cultures ([1]; barley): significant increases in growth
% of control [1, 3]: 167 % of control
Fresh weight [1, 3]: 35.0
growth of in vitro cell cultures (Bean callus cell culture; bean): significant increases in growth
% of control (Bean callus cell culture; [3]): 149 % of control
Fresh weight (Bean callus cell culture; [3]): 19.8
growth of in vitro cell cultures ([2]; potato): significant increases in growth
% of control [2, 3]: 121 % of control
Fresh weight [2, 3]: 23.5
Dry wt, Barley (Larker barley; treated at 7, 12 and 18 days): 210 mg/shoot
Dry wt, Barley (Larker barley; treated at 7 and 12 days): 206 mg/shoot
Dry wt, Barley (Larker barley; treated at 12 and 18 days): 214 mg/shoot
Dry wt, Barley (Larker barley; treated at 7 days): 205 mg/shoot
Dry wt, Barley (Larker barley; treated at 12 days): 197 mg/shoot
Dry wt, Barley (Larker barley; treated at 18 days): 193 mg/shoot
application rate for maximum effectiveness (field corn; corn seedlings): about 4 grams per acre
effective application rate (field corn; corn seedlings): about 0.4 grams per acre
Dry Weight (field corn; [4]): 408 mg/shoot
% increase (field corn; [4]): 22%
Dry Weight (field corn; [5]): 463 mg/shoot
% increase (field corn; [5]): 39%
Dry Weight (field corn; soil drench, 0.01 mg/l): 426 mg/shoot
% increase (field corn; soil drench, 0.01 mg/l): 22%
Dry Weight (field corn; soil drench, 0.10 mg/l): 519 mg/shoot
% increase (field corn; soil drench, 0.10 mg/l): 48%
Dry Weight (percent change) (IR-8 rice seedlings; 1 hour): 4%
Dry Weight (percent change) (IR-8 rice seedlings; 3 hours): 6%
Dry Weight (percent change) (IR-8 rice seedlings; 6 hours): 10%
optimum concentration for growth (tobacco callus): 0.1 μg per dish
growth over the control (tobacco callus; listed as 1-triacontanol): significant increases in growth
growth over the control (tobacco callus; listed as triacontanol): significant increases in growth over the control

From patent US4150970A, “Growth regulator for plants” (Board of Trustees of Michigan State University, priority 1977, dated 1979)
